Source: paper PMC5397516, “Insights into the Mode of Action of the Sactibiotic Thuricin CD” (Frontiers in Microbiology, 2017)
Read-outs that look alike come from different tables or passages of the source. Where no end group is shown, it is not given here.

Experiments:
B. firmus DPC6349 cells = experiment: Time course flow cytometry of membrane potential (DiOC2(3)), cell size (FSC) and granularity (SSC); assay type: cell-based, Bacillus firmus
Excerpt: Used alone or in combination with fluorescent probes, FC enables the assessment of various structural and functional cell properties, often leading to a deeper characterization of the physiological heterogeneity of a microbial population ([Díaz et al., 2010]). Membrane potential in microbial cells can be detected by FC following staining with fluorescent lipophilic cell-permeant probes such as DiOC2(3). […] Conversely, fluorescence-independent monitoring by FC of the forward (FSC) and side-angle (SSC) light scattering properties of a bacterial population provides useful information about morphological parameters such as cell size and internal granularity/complexity, respectively ([Díaz et al., 2010]; [Shapiro, 2015]). The impact of the thuricin CD peptides, Trnα and Trnβ, on the membrane potential and morphology of sensitive B. firmus DPC6349 cells was therefore assessed by FC as follows. Cells from a 100 μl aliquot of an overnight culture were recovered by centrifugation (8260 g for 10 min), diluted 10-fold in 1 ml of LB broth and activated by incubation at 37°C for 30 min. At this point, the cells were diluted a further 25-fold and stained for 30 min with a solution of 6.3 μM DiOC2 (3) (Thermo Fisher Scientific), prepared in PBS and containing 0.21% glucose to energize the cells and thereby generate a large membrane potential. Aliquots of 1.4 ml of stained samples were acquired at medium flow rate (35 μl/sec) using a BD Accuri C6 flow cytometer (Becton Dickinson, Belgium) and a threshold of 10000 on FSC to minimize background. Acquisition and analysis of DiOC2(3) fluorescence (FL3, > 670 nm long pass), cell size (FSC) and cell complexity/granularity (SSC) were carried out using the BD Accuri C6 software v. 1.0.2 (Becton Dickinson, Belgium). The microbial population was identified based on its light scattering properties on FSC versus SSC bi-plots and a gating strategy was used to discriminate it from background particles and cell debris. The time course changes in membrane potential and morphology of DPC6349 cells following challenge with an antimicrobial were assessed using the “Run Unlimited” function of the C6 flow cytometer. Unchallenged DiOC2(3)-stained cells were initially acquired for 2 min to establish baseline levels of membrane potential and morphological parameters. Subsequently, a small aliquot of a 10–15x stock solution of an antimicrobial in PBS was added and its effect on the physiology of the sensitive target monitored over 15–25 min. The impact on the host’s membrane potential of individual, combined and sequentially added thuricin CD peptides, Trnα or Trnβ, was compared to those exerted by the proton motive force (PMF)-depleting agents Nisin A ([Bruno et al., 1992]), lacticin 3147 ([McAuliffe et al., 1998]), and valinomycin ([Shapiro, 2004]). Stock solutions of valinomycin were prepared in DMSO, whereas diluted working solutions were made using PBS. To generate high external potassium conditions and trigger the membrane depolarizing activity of valinomycin ([Shapiro, 2004]; [Cronin, 2015]), 150mM KCl was added to the PBS used to prepare the DiOC2(3) staining solution. Assays were conducted in duplicate.

B. firmus DPC6349 = experiment: Minimum inhibitory concentration (MIC) assay, two-fold serial dilutions in LB broth; assay type: cell-based, Bacillus firmus; settings: for MIC, fold higher than thuricin CD: B. firmus DPC6349, in molar values
Experimental: In this study, B. firmus DPC6349 was utilized as a surrogate thuricin CD-sensitive host, in lieu of thuricin CD-sensitive C. difficile strains. The aerobic growth conditions of DPC6349, in conjunction with its class I status, facilitated the FC experiments in this study. MIC assays were conducted as previously described with minor modifications ([Mathur et al., 2013]). Briefly, cells of the bacteriocin-sensitive strain B. firmus DPC6349 were grown overnight for 16 h in LB broth at 37°C with vigorous agitation (150 rpm). The following day, the cells were subcultured until they reached mid-logarithmic phase (an OD600 of approximately 0.5). At this point, cells were diluted such that the final inoculum for MIC assays was approximately 5 × 10^5 cfu/ml. Thuricin CD peptides, Nisin A and lacticin 3147 peptides were resuspended in LB broth. The potassium ionophore, valinomycin, was initially reconstituted in DMSO (Molecular Probes) prior to diluting in PBS and subsequently diluting in LB broth. All antimicrobials were finally diluted in LB broth to give the desired starting concentrations and two-fold serial dilutions were performed in 96-well microtitre plates, for MIC assays. MIC readings were taken at 18 h and the MIC was defined as the lowest concentration of the antimicrobial at which there was no visible growth of the target strain. Assays were conducted in triplicate.

[1] = B. firmus DPC6349, approx. 5 × 10^5 cfu/ml, LB broth, read at 18 h, no visible growth, triplicate

Row | Compound | Effect on membrane potential and cell size (B. firmus DPC6349 cells; (approximately 3x MIC), DiOC2(3)) | MIC (B. firmus DPC6349; [1]) | MIC, fold higher than thuricin CD (B. firmus DPC6349) | MIC (B. firmus DPC6349; Cytobacillus firmus, B. firmus DPC6349, approx. 5 × 10^5 cfu/ml, LB broth, read at 18 h, no visible growth, triplicate, read-out: MIC) | Effect on cell size and granularity (B. firmus DPC6349 cells; 156 nM (0.25x MIC), 150 mM extracellular KCl) | Effect on membrane potential (B. firmus DPC6349 cells; 156 nM (0.25x MIC), 150 mM extracellular KCl, DiOC2(3)) | MIC (B. firmus DPC6349; Cytobacillus firmus, DPC6349, 18 h) | Effect on cell size (FSC) and granularity (SSC) (B. firmus DPC6349 cells; 3 μM (approximately 10x MIC)) | Effect on membrane potential (B. firmus DPC6349 cells; 3 μM (approximately 10x MIC), DiOC2(3) red fluorescence) | Time to membrane depolarization after adding the peptide (B. firmus DPC6349 cells; 3 μM (approximately 10x MIC), DiOC2(3)-stained energized cells, duplicate) | MIC (B. firmus DPC6349; B. firmus DPC6349, approx. 5 × 10^5 cfu/ml, LB broth, read at 18 h, no visible growth, triplicate, read-out: MIC)
1 | O=C(N[C@H](CO)[C@H](O)c1ccc([N+](=O)[O-])cc1)C(Cl)Cl [Chloramphenicol, chloramphenicol] | no membrane depolarization and reduction in cell size | 2.423 µg/mL | 60 fold | 7.5 µM | – | – | – | – | – | – | –
2 | CC(C)[C@@H]1NC(=O)[C@H](C)OC(=O)[C@@H](C(C)C)NC(=O)[C@@H](C(C)C)OC(=O)[C@H](C(C)C)NC(=O)[C@H](C)OC(=O)[C@@H](C(C)C)NC(=O)[C@@H](C(C)C)OC(=O)[C@H](C(C)C)NC(=O)[C@H](C)OC(=O)[C@@H](C(C)C)NC(=O)[C@@H](C(C)C)OC1=O [Valinomycin, valinomycin] | – | 0.69 µg/mL | five-fold higher | – | no reduction in cell size or granularity | immediate and sharp membrane depolarization | 0.625 µM | – | – | – | –
3 | Nisin A (ITSISLCTPGCKTGALMGCNMKTATCHCSIHVSK; also: lantibiotic post-translational modifications (thioether rings), not given here; UniProt P13068 24-57, looked up) [pore-forming single-component lantibiotic bacteriocin] | – | 1.046 µg/mL | approximately 2.5 fold | – | – | – | – | decreases in cell size (FSC) and granularity/complexity (SSC) | very fast membrane depolarization | ≤ 4 min | 0.312 µM
